Reference: paper PMC8705538, “Discovery of SARS-CoV-2 Nsp14 and Nsp16 Methyltransferase Inhibitors by High-Throughput Virtual Screening” (Pharmaceuticals, 2021)

What was measured:
SARS-CoV-2 nsp14 = SARS-CoV-2 nsp14 (Severe acute respiratory syndrome coronavirus 2, UniProt P0DTD1); test: biochemical; conditions: 100 μM
SARS-CoV-2 nsp16/nsp10 = SARS-CoV-2 nsp16/nsp10 (Severe acute respiratory syndrome coronavirus 2, UniProt P0DTD1); test: biochemical; conditions: 100 μM

Row | SMILES | Percent inhibition at 100 μM, nsp14 (SARS-CoV-2 nsp14) | Percent inhibition at 100 μM, nsp16 (SARS-CoV-2 nsp16/nsp10)
1 | O=C(Cc1csc(SCC(=O)c2ccccc2)n1)Nc1ccccc1 [Compound 005-296-365] | 27 ±2% | -17 ±4%
2 | CCOc1ccccc1OCC(=O)N1CCCC(c2nc3ccccc3s2)C1 (centres unmarked) [Compound 005-679-672] | 6 ±0% | -59 ±2%
3 | O=C(CCn1cncn1)N1CCC(c2nc3ccccc3s2)CC1 [Compound 009-436-708] | 2 ±1% | -114 ±6%
4 | O=C(CCn1cncn1)N1CCCC1c1nc2ccccc2s1 (centres unmarked) [Compound 009-447-345] | 2 ±0% | 1 ±1%
5 | Cc1nc(CC(=O)N2CCCC(c3nc4ccccc4s3)C2)cs1 (centres unmarked) [Compound 021-760-906] | 10 ±2% | 28 ±6%
6 | Cn1nccc1CCC(=O)N1CCCC(c2nc3ccccc3s2)C1 (centres unmarked) [Compound 042-575-680] | 8 ±1% | 33 ±9%
7 | O=C(CCCn1cncn1)N1CCCC(c2nc3ccccc3s2)C1 (centres unmarked) [Compound 045-938-897] | 7 ±2% | -29 ±5%
8 | Cc1csc(C2CCCN(C(=O)CCn3cnc4c(N)ncnc43)C2)n1 (centres unmarked) [Compound 046-114-939] | 15 ±4% | 37 ±13%
9 | Cn1cnn(CCC(=O)N2CCCC(c3nc4ccccc4s3)C2)c1=O (centres unmarked) [Compound 046-705-372] | 5 ±3% | 15 ±8%
10 | Cn1cc(CCC(=O)N2CCCC(c3nc4ccccc4s3)C2)cn1 (centres unmarked) [Compound 046-706-934] | 5 ±3% | -113 ±16%
11 | O=C(CCc1cncnc1)N1CCCC(c2nc3ccccc3s2)C1 (centres unmarked) [Compound 046-723-388] | 5 ±3% | -45 ±13%
12 | O=C(O)CCC(=O)Nc1nc2n(n1)C(c1ccccc1)CC(=O)N2 (centres unmarked) [ZINC000000095711] | -16 ±0% | -77 ±13%
13 | Nc1ncnc2c1ncn2CC(O)CO (centres unmarked) [ZINC000000370772] | -9 ±12% | -34 ±9%
14 | O=C(CC1(O)C(=O)N(Cc2ccc3c(c2)OCO3)c2ccccc21)c1ccc(F)cc1 (centres unmarked) [ZINC000000783765] | -10 ±3% | -3 ±4%
15 | CC(=O)Nc1ccn(C2OC(CO)C(O)C2O)c(=O)n1 (centres unmarked) [ZINC000001078602] | -15 ±5% | -9 ±1%
16 | NS(=O)(=O)c1ccc(NC2=NC(=O)C(CC(=O)O)S2)cc1 (centres unmarked) [ZINC000001797008] | 0 ±2% | -35 ±10%
17 | O=C(Nc1ccc(N2CCOCC2)cc1)c1oc2ccccc2c1CSc1nnc[nH]1 [ZINC000003404544] | 3 ±2% | 6 ±8%
18 | CC1=C(C(=O)O)N2C(=O)C(NC(=O)C(N)c3ccc(O)cc3)C2SC1 (centres unmarked) [ZINC000003830391] | -18 ±6% | -8 ±1%
19 | CCOc1c(Cl)cc(C(=O)Nc2cccc(C(=O)O)c2)cc1Cl [ZINC000004649202] | -1 ±3% | 14 ±5%
20 | NC(=O)Cn1cnc2c(cnn2CCO)c1=O [ZINC000004940485] | 2 ±0% | 6 ±6%
21 | NS(=O)(=O)c1ccc(NC(=O)COC(=O)c2n[nH]c3ccccc23)cc1 [ZINC000005360401] | -15 ±7% | 3 ±1%
22 | O=C(Cc1nnc(O)c2ccccc12)NCC(O)c1ccccc1 (centres unmarked) [ZINC000009340377] | 5 ±4% | 2 ±5%
23 | Cc1ccc(NC(=O)Cn2c(=O)n(CC(=O)NCc3ccco3)c(=O)c3ccccc32)cc1C [ZINC000009617688] | 10 ±6% | -8 ±4%
24 | CCN(Cc1ccncc1)C(=O)CC1C(=O)NCCN1CCCc1ccccc1 (centres unmarked) [ZINC000011821342] | 5 ±5% | 17 ±11%
25 | CC(C)Cn1c(CNC(=O)c2ccccc2C(F)(F)F)nnc1SCc1ccncc1 [ZINC000012152850] | 2 ±8% | 19 ±6%
26 | COc1ccc(CCNC(=O)C2C3C=CC4(CN(c5ccc6c(c5)OCO6)C(=O)C24)O3)cc1 (centres unmarked) [ZINC000012895535] | 5 ±2% | -15 ±6%
27 | CC[C@H](C)[C@H](N)C(=O)NS(=O)(=O)OC[C@H]1O[C@@H](n2cnc3c(N)ncnc32)[C@H](O)[C@@H]1O [ZINC000013488353] | 8 ±5% | 34 ±6%
28 | COc1ccc(C2=NN(C(=O)CCc3ccc4c(c3)OCO4)C(O)(C(F)(F)F)C2)cc1 (centres unmarked) [ZINC000016448507] | 9 ±4% | 11 ±5%

Row | SMILES | Percent inhibition at 100 μM, nsp14 (SARS-CoV-2 nsp14) | Percent inhibition at 100 μM, nsp16 (SARS-CoV-2 nsp16/nsp10)
29 | COc1ccc(N2C(=O)CC(c3c(C)[nH]n(-c4nc5ccccc5s4)c3=O)C2=O)cc1 (centres unmarked) [ZINC000018085229] | 11 ±6% | 17 ±6%
30 | CC(C)CC(C(=O)OCC(=O)Nc1cccc(Cl)c1)N1C(=O)C2CC=CCC2C1=O (centres unmarked) [ZINC000019078629] | 8 ±3% | 37 ±9%
31 | O=C(CCc1c[nH]c2ccccc12)N1CCCC1c1ccc[nH]1 (centres unmarked) [ZINC000019688789] | 2 ±0% | -10 ±1%
32 | O=C(CP(=O)(O)O)N=c1[nH]c2ccc(Cl)cc2s1 [ZINC000020502712] | 7 ±6% | 17 ±7%
33 | COc1cccc(C2CC(O)=Nc3c2c(C)nn3-c2ncnc3[nH]cnc23)c1 (centres unmarked) [ZINC000020745418] | -8 ±5% | -7 ±2%
34 | O=C(NCc1cccnc1)C1CC(NCc2c(F)cccc2F)CN1Cc1ccccc1 (centres unmarked) [ZINC000020999776] | -2 ±4% | 8 ±5%
35 | Cn1c(=O)c(=O)n(CC(=O)NCCN(CCc2ccccc2)Cc2ccco2)c2ccccc21 [ZINC000021649685] | 10 ±9% | 7 ±4%
36 | Nc1ncnc2c1ncn2[C@@H]1O[C@H](COS(=O)(=O)NC(=O)c2ccccc2O)[C@@H](O)[C@H]1O [ZINC000028567519] | 28 ±2% | 14 ±3%
37 | Cc1nn(C)c2ncc(NC(=O)c3ccccc3-c3ncc(-c4ccc(F)cc4)o3)cc12 [ZINC000032754717] | 14 ±6% | -24 ±9%
38 | C=CCn1c(=O)c(=O)n(CC(=O)NCCN2CCN(c3cc(Cl)ccc3C)CC2)c2ccccc21 [ZINC000033268761] | 9 ±3% | 32 ±7%
39 | CC1(O)Cc2n[nH]c(O)c2C(c2ccccc2)C1 (centres unmarked) [ZINC000035326963] | 4 ±8% | -2 ±6%
40 | O=C(O)c1cc(CN2CC[C@@H](c3ccc4ccccc4c3)[C@H](O)C2)ccc1O [ZINC000065452571] | -3 ±8% | -2 ±5%
41 | Cc1ccc(Oc2ncccc2CNC(=O)c2cnc(O)cc2O)cn1 [ZINC000067754517] | 11 ±3% | 39 ±8%
42 | CC(=O)c1cccc(OCc2cc(C(=O)NCC(N)=O)n[nH]2)c1 [ZINC000067920483] | 2 ±2% | -1 ±3%
43 | CN(C)c1nc2c(c(N(C)C)n1)CCN(C(=O)[C@@H](N)Cc1ccc(O)cc1)C2 [ZINC000071682020] | 12 ±5% | 9 ±8%
44 | CN(C)c1nc2c(c(=O)[nH]1)CCN(C(=O)c1n[nH]cc1Cl)C2 [ZINC000072172639] | -1 ±2% | 29 ±5%
45 | O=C(CC1(C(=O)O)CC(c2ccc(F)cc2)=NO1)Nc1cccc(C(=O)O)c1 (centres unmarked) [ZINC000072406141] | 14 ±7% | 31 ±8%
46 | O=C(c1ccc(Cn2ccnc2)o1)N1CCc2[nH]c3ccc(Cl)cc3c2C1 [ZINC000072429175] | 0 ±4% | 6 ±5%
47 | Nc1nc2c(c(=O)[nH]1)CC(CCc1ccc(C(=O)NC(CCC(=O)O)C(=O)O)cc1)CN2 (centres unmarked) [ZINC000077301924] | 5 ±6% | 15 ±10%
48 | Cn1nc(CC(=O)NCCCc2nnc3ccccn23)c2ccccc2c1=O [ZINC000095478169] | -6 ±2% | -53 ±8%
49 | COc1c(C)c2c(c(O)c1CC=C(C)CCC(=O)Nc1nnc[nH]1)C(=O)OC2 [ZINC000096115284] | 5 ±4% | -68 ±6%
50 | O=C(Nc1ccccc1-c1ccccc1)C1CCCN(c2ccc(-n3cncn3)nn2)C1 (centres unmarked) [ZINC000096124096] | 9 ±7% | 10 ±1%
51 | CC(C)N(CC1OC(n2cnc3c(N)ncnc32)C(O)C1O)C1CC(CCc2nc3cc(C(C)(C)C)ccc3[nH]2)C1 (centres unmarked) [ZINC000100074350] | 30 ±4% | 68 ±7%
52 | Cc1cc(=O)n2c(n1)NC(N1CCOCC1)=NC2c1ccccc1 (centres unmarked) [ZINC000104279901] | -14 ±2% | -33 ±4%
53 | O=C(Cc1ccc2c(c1)CCO2)Nc1ccc2nc[nH]c(=O)c2c1 [ZINC000170622294] | -2 ±2% | -6 ±3%
54 | O=C(CCc1ccc(O)cc1)NC(c1ccc2c(c1)CCO2)C1CC(O)C1 (centres unmarked) [ZINC000220681335] | 0 ±2% | 10 ±5%
55 | O=C(CCc1ccncc1)NC(c1ccccc1)C1CC(O)C1 (centres unmarked) [ZINC000252528037] | 13 ±2% | 36 ±3%
